According to ChEMBL document CHEMBL4477222, “Discovery of Novel Thiophene-Based, Thumb Pocket 2 Allosteric Inhibitors of the Hepatitis C NS5B Polymerase with Improved Potency and Physicochemical Profiles” (J Med Chem, 2016):
Converted amounts (≈) assume the structure as drawn. The source made the active and inactive calls. No cut-off for these calls is given here.

How the values were obtained:
[1] = Clearance in dog at 1 mg/kg, iv through bolus administration; assay type: ADME, organism-based, Canis lupus familiaris; details: in vivo
[2] = Half life in Fischer 344 rat at 1 mg/kg, iv through bolus administration; assay type: ADME, organism-based; details: in vivo
[3] = system: Nonstructural protein 5A (Hepatitis C virus), Q5L478 [UNDEFINED MUTATION]; assay: Inhibition of BMS-790052-resistant HCV genotype 1b NS5A Y93H mutant; details: Hepatitis C virus subtype 1b
[4] = Ratio of drug level in liver to heart in Sprague-Dawley rat at 10 mg/kg, po; assay type: ADME, organism-based; details: in vivo
[5] = Metabolic stability in dog liver microsomal S9 fraction assessed as compound remaining at 1 uM after 2 hrs in presence of NADPH/UDPGA; assay type: ADME, subcellular, Canis lupus familiaris; details: read-out: Stability
[6] = Metabolic stability in rat liver microsomal S9 fraction assessed as compound remaining at 1 uM after 2 hrs in presence of NADPH/UDPGA; assay type: ADME, subcellular; details: read-out: Stability
[7] = AUC (0 to infinity) in dog at 3 mg/kg, po; assay type: ADME, organism-based, Canis lupus familiaris; design: dose 3 mg/kg, time infinity, route oral; details: in vivo
[8] = Protein binding in dog plasma at 1 uM; assay type: ADME, cell-free, Canis lupus familiaris; details: read-out: PPB (converted)
[9] = system: NS3 protease (Hepacivirus C), C1KIQ2 [T54A]; assay: Inhibition of telaprevir-resistant HCV NS3 protease T54A mutant; details: Hepacivirus hominis
Cytochrome P450 3A4 [10] = target: T1, Cytochrome P450 3A4 (Homo sapiens, UniProt P08684); assay: Drug metabolism in human liver S9 fraction assessed as CYP3A4-mediated metabolite formation after 1 hr; assay type: ADME, subcellular; details: s9, 1 h
[11] = Solubility of the compound in FeSSIF at pH 5.2; assay type: physicochemical
Hepatocyte = assay: Change in CYP3A4 mRNA levels in hepatocytes (unknown origin); assay type: ADME, cell-based
[12] = Metabolic stability in dog hepatocytes assessed as compound remaining at 10 uM after 2 hrs; assay type: ADME, cell-based, Canis lupus familiaris, Hepatocyte; details: read-out: Stability
[13] = Protein binding in dog liver at 1 uM; assay type: ADME, tissue-based, Canis lupus familiaris; details: read-out: PB (converted)
[14] = Protein binding in human liver at 1 uM; assay type: ADME, tissue-based; details: read-out: PB (converted)
[15] = Volume of distribution in steady state in monkey at 1 mg/kg, iv through bolus administration; assay type: ADME, organism-based, Macaca mulatta; details: rhesus monkey, in vivo, read-out: Vdss
[16] = Metabolic stability in dog liver microsomal S9 fraction assessed as compound remaining at 1 uM after 2 hrs in presence of NADPH; assay type: ADME, subcellular, Canis lupus familiaris; details: read-out: Stability
[17] = system: Hepatitis C virus subtype 1b; assay: Inhibition of HCV genotype 1b NS5B assessed as suppression of sub-genomic RNA levels after 96 hrs in presence of telaprevir by luciferase reporter gene assay
[18] = Half life in monkey at 1 mg/kg, iv through bolus administration; assay type: ADME, organism-based, Macaca mulatta; details: rhesus monkey, in vivo
[19] = Metabolic stability in human hepatocytes assessed as compound remaining at 10 uM after 2 hrs; assay type: ADME, cell-based, Hepatocyte; details: read-out: Stability
Cytochrome P450 3A4 [20] = target: T1, Cytochrome P450 3A4; assay: Induction of CYP3A4 (unknown origin) in hepatocytes; assay type: ADME, cell-based
[21] = Protein binding in monkey plasma at 1 uM; assay type: ADME, cell-free, Macaca mulatta; details: rhesus monkey, read-out: PPB (converted)
[22] = Drug excretion in rat feces; assay type: ADME; details: in vivo
[23] = Cytotoxicity against human W11.8 cells assessed as reduction in cell viability after 4 days; assay type: cell-based
[24] = target: RNA-directed RNA polymerase (Hepacivirus hominis, UniProt O39930, M423I); assay: Inhibition of HCV genotype 1a NS5B M423I mutant; design: species or system Hepatitis C virus subtype 1a
[25] = Ratio of drug level in liver to kidney in Sprague-Dawley rat at 10 mg/kg, po; assay type: ADME, organism-based; details: in vivo
MDR1 = assay: Efflux ratio of permeability from basolateral to apical side over apical to basolateral side in MDCK cells expressing MDR1; assay type: ADME, cell-based, Canis lupus familiaris; details: dog
[26] = system: Nonstructural protein 5A (Hepatitis C virus), Q5L478 [Y93C]; assay: Inhibition of BMS-790052-resistant HCV genotype 1a NS5A Y93C mutant; details: Hepatitis C virus subtype 1a
[27] = AUC (0 to infinity) in dog at 1 mg/kg, iv through bolus administration; assay type: ADME, organism-based, Canis lupus familiaris; design: dose 1 mg/kg, route intravenous, time infinity; details: in vivo
[28] = AUC (0 to infinity) in Sprague-Dawley rat at 3 mg/kg, po; assay type: ADME, organism-based; design: dose 3 mg/kg, route oral, time infinity; details: in vivo
[29] = target: RNA-directed RNA polymerase (Hepacivirus hominis, UniProt O39930, M423T); assay: Inhibition of HCV genotype 1a NS5B M423T mutant; design: species or system Hepatitis C virus subtype 1a
[30] = system: Nonstructural protein 5A (Hepatitis C virus), Q5L478 [UNDEFINED MUTATION]; assay: Inhibition of BMS-790052-resistant HCV genotype 1a NS5A L31V mutant; details: Hepatitis C virus subtype 1a
[31] = system: NS3 protease (Hepacivirus C), C1KIQ2 [R155T]; assay: Inhibition of telaprevir-resistant HCV NS3 protease R155T mutant; details: Hepacivirus hominis
[32] = Ratio of drug level in plasma to lungs in Sprague-Dawley rat at 10 mg/kg, po; assay type: ADME, organism-based, Lung/Plasma; details: in vivo
[33] = Cytotoxicity against human Huh7ET cells assessed as reduction in cell viability after 4 days; assay type: cell-based
[34] = Volume of distribution at steady state in Sprague-Dawley rat at 1 mg/kg, iv through bolus administration; assay type: ADME, organism-based; details: in vivo, read-out: Vdss
[35] = target: RNA-directed RNA polymerase (Hepacivirus hominis, UniProt O39930, L419M); assay: Inhibition of HCV genotype 1a NS5B L419M mutant; design: species or system Hepatitis C virus subtype 1a
[36] = Ratio of drug level in liver to lungs in Sprague-Dawley rat at 10 mg/kg, po; assay type: ADME, organism-based, Liver/Lung; details: in vivo
[37] = Half life in Sprague-Dawley rat at 1 mg/kg, iv through bolus administration; assay type: ADME, organism-based; details: in vivo
[38] = system: NS3 protease (Hepacivirus C), C1KIQ2 [R155K]; assay: Inhibition of telaprevir-resistant HCV NS3 protease R155K mutant; details: Hepacivirus hominis
[39] = Oral bioavailability in Fischer 344 rat at 3 mg/kg; assay type: ADME, organism-based; details: in vivo
[40] = system: NS3 protease (Hepacivirus C), C1KIQ2 [A156T]; assay: Inhibition of telaprevir-resistant HCV NS3 protease A156T mutant; details: Hepacivirus hominis
[41] = Cmax in dog at 3 mg/kg, po; assay type: ADME, organism-based, Canis lupus familiaris; design: dose 3 mg/kg, route oral; details: in vivo
[42] = Metabolic stability in monkey hepatocytes assessed as compound remaining at 10 uM after 2 hrs; assay type: ADME, cell-based, Macaca mulatta, Hepatocyte; details: rhesus monkey, read-out: Stability
[43] = Solubility of the compound in FaSSIF at pH 6.3; assay type: physicochemical
[44] = Half life in dog at 1 mg/kg, iv through bolus administration; assay type: ADME, organism-based, Canis lupus familiaris; details: in vivo
[45] = Drug excretion in rat bile; assay type: ADME, tissue-based; details: in vivo
[46] = Chemical stability of compound under long term storage in solution; assay type: physicochemical
[47] = Volume of distribution in steady state in dog at 1 mg/kg, iv through bolus administration; assay type: ADME, organism-based, Canis lupus familiaris; details: in vivo, read-out: Vdss
[48] = system: Nonstructural protein 5A (Hepatitis C virus), Q5L478 [UNDEFINED MUTATION]; assay: Inhibition of BMS-790052-resistant HCV genotype 1a NS5A Y93H mutant; details: Hepatitis C virus subtype 1a
[49] = Half life in Sprague-Dawley rat at 3 mg/kg, po; assay type: ADME, organism-based; details: in vivo
[50] = Volume of distribution in steady state in Fischer 344 rat at 1 mg/kg, iv through bolus administration; assay type: ADME, organism-based; details: in vivo, read-out: Vdss
[51] = system: Nonstructural protein 5A (Hepatitis C virus), Q5L478 [UNDEFINED MUTATION]; assay: Inhibition of BMS-790052-resistant HCV genotype 1b NS5A L31V mutant; details: Hepatitis C virus subtype 1b
[52] = system: Nonstructural protein 5A (Hepatitis C virus), Q5L478 [UNDEFINED MUTATION]; assay: Inhibition of BMS-790052-resistant HCV genotype 1a NS5A L31M mutant; details: Hepatitis C virus subtype 1a
[53] = system: Nonstructural protein 5A (Hepatitis C virus), Q5L478 [UNDEFINED MUTATION]; assay: Inhibition of BMS-790052-resistant HCV genotype 1a NS5A Q30H mutant; details: Hepatitis C virus subtype 1a

CC(C)(C)C#Cc1cc(N(CC(=O)N2CCOCC2)C(=O)[C@H]2CC[C@H](C)CC2)c(C(=O)O)s1
clearance [1]: 10.1 mL/min/kg
half-life [2]: 100 min
inhibition [3]: Active
Ratio [4]: 10
remaining at 2 h, 1 µM [5]: 82%
remaining at 2 h, 1 µM [6]: 79%
AUC(0-inf) [7]: 2340 ng·h/mL
fraction unbound at 1 µM [8]: 0.025
inhibition [9]: Active
Drug metabolism (Cytochrome P450 3A4 [10]): < 5%
solubility [11]: 800 µg/mL (≈ 1690 µM)
Activity (Hepatocyte): Non-Toxic
remaining at 2 h, 10 µM [12]: 70%
fraction unbound at 1 µM [13]: 0.14
fraction unbound at 1 µM [14]: 0.153
Vd [15]: 0.23 L/kg
remaining at 2 h, 1 µM [16]: 82%
inhibition [17]: Active
half-life [18]: 132 min
remaining at 2 h, 10 µM [19]: 77%
Activity (Cytochrome P450 3A4 [20]): Not Active
fraction unbound at 1 µM [21]: 0.023
Drug excretion [22]: Metabolite_Detected
CC50 at 96 h [23]: > 20 µM
EC50 [24]: 89 nM
Ratio [25]: 10
efflux ratio (MDR1): 9.8
inhibition [26]: Active
AUC(0-inf) [27]: 1360 ng·h/mL
AUC(0-inf) [28]: 8860 ng·h/mL
EC50 [29]: 280 nM
inhibition [30]: Active
inhibition [31]: Active
Ratio [32]: 10
CC50 at 96 h [33]: > 20 µM
Vd [34]: 1.55 L/kg
EC50 [35]: 240 nM
Ratio [36]: 10
half-life [37]: 141 min
inhibition [38]: Active
bioavailability [39]: 6.5%
inhibition [40]: Active
Cmax [41]: 1550 ng/mL
remaining at 2 h, 10 µM [42]: 30%
solubility [43]: 1700 µg/mL (≈ 3580 µM)
half-life [44]: 588 min
Drug excretion [45]: Metabolite_Detected
Stability [46]: Stable
Vd [47]: 1.57 L/kg
inhibition [48]: Active
half-life [49]: 182 min
Vd [50]: 0.86 L/kg
inhibition [51]: Active
inhibition [52]: Active
inhibition [53]: Active
